Experimental data published in patent US11696928B2, “Compounds and use thereof in the expansion of stem cells and/or progenitor cells” (UNIVERSITE DE MONTREAL, priority 2017, dated 2023).

How the values were obtained:
[1] = tested on: Human CD34+ cord blood (CB) cells; assay: CD34+ activity assessment (7-day expansion of pre-expanded CD34+ cells, flow cytometry); format: cell-based; conditions: concentration at which compound/vehicle ratio of CD34+ cell number is >= 1.5; 7 days, with 35 nM UM0128171; Table 1
Procedure: Human CD34+ cord blood (CB) cells were isolated from fresh units using RosetteSep™ 0034 pre-enrichment cocktail followed by CD34 positive selection using EasySep Kit™ (StemCell Technologies). The cells were then pre-expanded in bulk, by culturing at 37° C. for 6 days in HSC expansion media consisting of StemSpan ACF (StemCell Technologies) supplemented with 100 ng/mL Stem Cell Factor (SCF, Shenandoah), 100 ng/mL FMS-like Tyrosine Kinase 3 Ligand (FLT3L, Shenandoah), 50 ng/mL Thrombopoietin (TPO, Shenandoah), 2 mM GlutaMAX™ (Invitrogen), 10 μg/mL low density lipoproteins (LDL, StemCell Technologies), 10 μg/mL Ciprofloxacin and 35 nM UM0128171. […] Following the pre-expansion, cells were harvested, aliquoted and frozen until use.
For each activity assessment, CD34+ pre-expanded cells (approximately 2000 per well in a 384-well plate) were cultured in HSC expansion media, in the presence of 35 nM UM0128171. Compounds were serially diluted (1/2) in DMSO (10 dilutions per compound) and added to the cells in order to achieve a 1/1000 final dilution. StemRegenin1 (SR1) and/or Compound 1001 were included in all experiments as controls to monitor assay performance. The plate was incubated at 37° C. for 7 days in static conditions (i.e. no shaking and no addition of media). Flow cytometry analysis was performed at the end of the 7-day expansion. Cells were stained with PE-labeled anti-human CD45RA (BD Biosciences) and APC-labeled anti-human CD34 (BD Biosciences) and analyzed using Intellicyt IQue cytometer equipped with ForeCyt software. Gates were drawn around the populations of interest to obtain cell numbers and relative proportions. The EC1.5 value, which is the concentration at which the compound/vehicle ratio is greater or equal to 1.5, was calculated by plotting the CD34+ cell number against concentrations (log-scale) in a 4-PL curve and fitting the curve using IDBS XLfit (set model 251) in Microsoft Excel.

AhR = biological target: T1, AhR (Homo sapiens, UniProt P35869); assay: Inhibition of AhR-mediated gene transcription (HEK-XRE 11.1 luciferase reporter, MeBIO induction); format: cell-based; conditions: HEK-XRE 11.1 cells, MeBIO 0.1 nM, luminescence after 24 hours; Table 1
T1 construct: One of the resultant clones was named HEK-XRE 11.1, and used in the reporter gene assays; endogenous in cells; host or cells: HEK-XRE 11.1 (HEK cells stably carrying the AhR-responsive luciferase reporter X4-4.27 and phRL-CMV)
T1 sequence (P35869 11-848): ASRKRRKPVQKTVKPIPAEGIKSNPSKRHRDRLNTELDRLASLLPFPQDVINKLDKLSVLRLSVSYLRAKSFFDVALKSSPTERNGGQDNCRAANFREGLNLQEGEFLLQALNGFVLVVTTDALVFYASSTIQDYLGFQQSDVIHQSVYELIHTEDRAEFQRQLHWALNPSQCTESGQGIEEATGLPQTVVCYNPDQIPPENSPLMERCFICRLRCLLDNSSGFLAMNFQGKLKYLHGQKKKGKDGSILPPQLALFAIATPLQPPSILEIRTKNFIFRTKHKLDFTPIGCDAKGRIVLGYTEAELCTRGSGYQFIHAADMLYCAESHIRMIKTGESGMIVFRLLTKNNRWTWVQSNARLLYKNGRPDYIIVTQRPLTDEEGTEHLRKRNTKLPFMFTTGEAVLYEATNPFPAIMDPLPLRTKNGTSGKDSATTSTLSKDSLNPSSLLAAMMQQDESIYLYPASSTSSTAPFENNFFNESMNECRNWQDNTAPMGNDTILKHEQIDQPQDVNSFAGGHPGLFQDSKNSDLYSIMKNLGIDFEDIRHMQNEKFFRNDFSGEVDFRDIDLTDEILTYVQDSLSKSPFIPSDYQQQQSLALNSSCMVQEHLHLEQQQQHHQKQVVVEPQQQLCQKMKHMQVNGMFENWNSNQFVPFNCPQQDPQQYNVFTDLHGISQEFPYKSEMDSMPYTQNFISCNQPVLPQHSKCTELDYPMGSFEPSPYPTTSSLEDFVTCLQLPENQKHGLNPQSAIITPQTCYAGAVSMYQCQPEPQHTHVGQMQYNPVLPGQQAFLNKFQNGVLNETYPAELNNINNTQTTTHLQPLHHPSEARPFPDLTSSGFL
Procedure: HEK cells line was transfected with an AhR-responsive firefly luciferase reporter gene X4-4.27 and the stable transfectants generated were again transfected with phRL-CMV (a Renilla luciferase expression vector; Promega) along with pBAsi-hU6 Pur DNA (a plasmid carrying the puromycin-resistant gene; TaKaRa, Shiga, Japan), and maintained in the presence of both hygromycin B and puromycin (2 mg/mL). One of the resultant clones was named HEK-XRE 11.1, and used in the reporter gene assays.
HEK-XRE 11.1 cells were plated in 384-well plates at a density of 25,000 cells in 50 uL volume per well. The induction of ARh pathway was done by addition of MeBIO at 0.1 nM concentration. ARh antagonist compounds were then added to seeded cells in serial dilutions (8 dilutions, 1:[…] down to 5 nM) in duplicate wells. Renilla expression was not used as internal control. On each plate, Compound 1001 and SR1 were added as dose control (8 dilutions, 1:3, 5 mM down to 2.5 nM for SR1 and 2 mM down to 1 nM for compound 1001). Luminescence activity was evaluated after 24 hours culture using Lumi-384-CellTiterGlo-Corning protocol. Dose-response curves were generated using nonlinear regression in Excel.

| SMILES | EC1.5 [1] | IC50 (AhR) |
| --- | --- | --- |
| Nc1c(C(=O)Nc2ccc(F)cc2)sc2ccc(C(F)(F)F)cc12 [Compound 1089] | 100 to 1000 nM | < 0.05 µM |
| Nc1c(C(=O)Nc2ccccc2)sc2ncc(C3CC3)cc12 [Compound 1091] | 100 to 1000 nM | 0.05 to 0.5 µM |
| Nc1c(C(=O)Nc2ccc(Oc3ccccc3)cc2)sc2ncc(C(F)(F)F)cc12 [Compound 1092] | 100 to 1000 nM | 0.05 to 0.5 µM |
| Nc1c(C(=O)Nc2cccc(Cl)c2)sc2ncc(C(F)(F)F)cc12 [Compound 1093] | <100 nM | < 0.05 µM |
| Cc1cccc(NC(=O)c2sc3ncc(C(F)(F)F)cc3c2N)c1 [Compound 1094] | <100 nM | < 0.05 µM |
| Nc1c(C(=O)Nc2ccc(Cl)c(Cl)c2)sc2ncc(C(F)(F)F)cc12 [Compound 1095] | 100 to 1000 nM | 0.05 to 0.5 µM |
| Cc1cc(NC(=O)c2sc3ncc(C(F)(F)F)cc3c2N)ccc1Cl [Compound 1096] | 1000 to 5000 nM | 0.05 to 0.5 µM |
| Nc1c(C(=O)Nc2ccc(Cl)c(O)c2)sc2ncc(C(F)(F)F)cc12 [Compound 1097] | 1000 to 5000 nM | > 0.5 µM |
| Nc1c(C(=O)Nc2ccc3c(c2)OCO3)sc2ncc(C(F)(F)F)cc12 [Compound 1098] | <100 nM | 0.05 to 0.5 µM |
| Nc1c(C(=O)Nc2ccc3c(c2)OCCO3)sc2ncc(C(F)(F)F)cc12 [Compound 1099] | <100 nM | 0.05 to 0.5 µM |
| Nc1c(C(=O)Nc2ccsc2)sc2ncc(C(F)(F)F)cc12 [Compound 1100] | <100 nM | < 0.05 µM |
| Cc1nc2cc(NC(=O)c3sc4ncc(C(F)(F)F)cc4c3N)ccc2s1 [Compound 1101] | 100 to 1000 nM | < 0.05 µM |
| Nc1c(C(=O)Nc2ccncn2)sc2ncc(C(F)(F)F)cc12 [Compound 1102] | >5000 nM | 0.05 to 0.5 µM |
| Nc1c(C(=O)Nc2ccccc2)sc2nc3c(cc12)CCCC3 [Compound 1104] | 100 to 1000 nM | 0.05 to 0.5 µM |
| COc1ccc(NC(=O)c2sc3nc4c(cc3c2N)CCCC4)cc1 [Compound 1105] | >5000 nM | 0.05 to 0.5 µM |
| Nc1c(C(=O)Nc2ccc(F)cc2)sc2nc3c(cc12)CCCC3 [Compound 1106] | 1000 to 5000 nM | 0.05 to 0.5 µM |
| Nc1c(C(=O)Nc2ncccn2)sc2ncc(C(F)(F)F)cc12 [Compound 1107] | 1000 to 5000 nM | < 0.05 µM |
| Nc1c(C(=O)Nc2cncnc2)sc2ncc(C(F)(F)F)cc12 [Compound 1109] | >5000 nM | > 0.5 µM |
| Nc1c(C(=O)Nc2ccc3[nH]ncc3c2)sc2ncc(C(F)(F)F)cc12 [Compound 1110] | >5000 nM | 0.05 to 0.5 µM |
| Nc1c(C(=O)Nc2ccccc2)sc2nc3c(cc12)CCCCC3 [Compound 1113] | 1000 to 5000 nM | 0.05 to 0.5 µM |
| Cc1cnc2sc(C(=O)Nc3ccc(F)cc3)c(N)c2c1 [Compound 1115] | <100 nM | < 0.05 µM |
| COc1ccc(NC(=O)c2sc3ccc(C(F)(F)F)nc3c2N)cc1 [Compound 1116] | 100 to 1000 nM | 0.05 to 0.5 µM |
| Nc1c(C(=O)Nc2ccc(F)cc2)sc2ccc(C(F)(F)F)nc12 [Compound 1117] | 100 to 1000 nM | < 0.05 µM |

| SMILES | EC1.5 [1] | IC50 (AhR) |
| --- | --- | --- |
| COc1ccc(NC(=O)c2sc3ccc(C)cc3c2N)cc1 [Compound 1119] | 100 to 1000 nM | 0.05 to 0.5 µM |
| Cc1ccc2sc(C(=O)Nc3ccc(F)cc3)c(N)c2c1 [Compound 1120] | <100 nM | < 0.05 µM |
| COc1cc(NC(=O)c2sc3ncc(C(F)(F)F)cc3c2N)ccc1F [Compound 1121] | 100 to 1000 nM | 0.05 to 0.5 µM |
| CCOc1ccc(NC(=O)c2sc3ncc(C(F)(F)F)cc3c2N)cc1 [Compound 1122] | <100 nM | < 0.05 µM |
| NC(=O)c1ccc(NC(=O)c2sc3ncc(C(F)(F)F)cc3c2N)cc1 [Compound 1123] | >5000 nM | 0.05 to 0.5 µM |
| CNC(=O)c1ccc(NC(=O)c2sc3ncc(C(F)(F)F)cc3c2N)cc1 [Compound 1124] | 100 to 1000 nM | 0.05 to 0.5 µM |
| COC(=O)c1ccc(NC(=O)c2sc3ncc(C(F)(F)F)cc3c2N)cc1 [Compound 1125] | 100 to 1000 nM | 0.05 to 0.5 µM |
| CN(C)c1ccc(NC(=O)c2sc3ncc(C(F)(F)F)cc3c2N)cc1 [Compound 1126] | 1000 to 5000 nM | 0.05 to 0.5 µM |
| Nc1c(C(=O)Nc2ccc(S(N)(=O)=O)cc2)sc2ncc(C(F)(F)F)cc12 [Compound 1127] | >5000 nM | 0.05 to 0.5 µM |
| COc1ccc(NC(=O)c2sc3ccc(C)nc3c2N)cc1 [Compound 1129] | 100 to 1000 nM | 0.05 to 0.5 µM |
| Cc1ccc2sc(C(=O)Nc3ccc(Cl)cc3)c(N)c2c1 [Compound 1130] | >5000 nM | 0.05 to 0.5 µM |
| Cc1ccc(NC(=O)c2sc3ccc(C)cc3c2N)cc1 [Compound 1131] | >5000 nM | 0.05 to 0.5 µM |
| Cc1ccc2sc(C(=O)Nc3ccc(Br)cc3)c(N)c2c1 [Compound 1132] | >5000 nM | 0.05 to 0.5 µM |
| COc1ccc(NC(=O)c2sc3ncc(C)cc3c2N)cc1Cl [Compound 1135] | <100 nM | < 0.05 µM |
| COc1ccc(NC(=O)c2sc3ccc(C(F)(F)F)cc3c2N)cc1Cl [Compound 1136] | >5000 nM | < 0.05 µM |
| Cc1cnc2sc(C(=O)Nc3ccc(C(F)(F)F)cc3)c(N)c2c1 [Compound 1137] | <100 nM | < 0.05 µM |
| Nc1c(C(=O)Nc2ccc(C(F)(F)F)cc2)sc2ccc(C(F)(F)F)cc12 [Compound 1138] | >5000 nM | 0.05 to 0.5 µM |
| Cc1cnc2sc(C(=O)Nc3cccc(Cl)c3)c(N)c2c1 [Compound 1139] | 100 to 1000 nM | < 0.05 µM |
| Cc1cccc(NC(=O)c2sc3ncc(C)cc3c2N)c1 [Compound 1140] | 100 to 1000 nM | 0.05 to 0.5 µM |
| Cc1cnc2sc(C(=O)Nc3ccc4c(c3)OCCO4)c(N)c2c1 [Compound 1141] | 100 to 1000 nM | 0.05 to 0.5 µM |
| CCOc1ccc(NC(=O)c2sc3ncc(C)cc3c2N)cc1 [Compound 1142] | 100 to 1000 nM | < 0.05 µM |
| CSc1ccc(NC(=O)c2sc3ncc(C)cc3c2N)cc1 [Compound 1143] | <100 nM | < 0.05 µM |
